{
  "source": "patent US11077087B2",
  "about": "“Compositions comprising dihydroquercetin for use in methods for treating herpes” (BIONOOX SUISSE SA, priority 2015, dated 2021)",
  "format_in_all_cases": "cell-based",
  "key": {"neutrophils [1]": {"system": "neutrophils", "experiment": "ROS production by neutrophils triggered by PMA, luminol chemiluminescence", "details": "for Integral (total chemiluminescence counts, total ROS production) / Peak max / Slope max / T. Slope max / T. half (rise) / T. max (peak): PMA 100 ng/mL; for Integral (total chemiluminescence counts, total ROS production): 22.21 min", "procedure": "(§1) PMA (12-O-tetradecanoyl-phorbol-13-acetate, Consolidated Midland Corp., Brewster, N.Y.) is dissolved at 1 mg/ml in dimethyl sulfoxide. This stock solution maintains full biological activity for several months when stored at […] in the dark. Unless otherwise specified, polymorphonuclear neutrophils (PMN), 10^6/ml in BS-H, are put into plastic centrifuge tubes (Falcon No. 2070, Falcon Labware, Div. of Becton, Dickinson & Co., Oxnard, Calif.) and brought to 37° C. PMA stock solution is added to provide a final concentration of 100 ng/ml of PMA. “Resting” (control) cells are exposed to […] dimethyl sulfoxide. A chemiluminescence (using luminol) method is used to measure Reactive Oxygen species (ROS) production (Dang et al, J Clin Invest. 2006, 116(7):2033-43; Boussetta et al, Blood. 2010, 116(26):5795-802). Superoxide production is measured by the superoxide dismutase (SOD)-inhibitable ferricytochrome c reduction assay.\nNeutrophils are triggered by PMA (100 ng/mL) in the presence of different concentrations of DHQ (0, 1, 10 and 100 μM) at 37° C. in Hanks buffer containing 10 μM luminol and chemiluminescence is measured by a chemiluminometer. Total chemiluminescence counts during 22.21 min. (integrals) corresponding to total ROS production are determined."}, "[2]": {"system": "polymorphonuclear neutrophils", "experiment": "Oxygen consumption of polymorphonuclear neutrophils triggered by PMA and fMLP", "details": "data not shown"}, "[3]": {"system": "polymorphonuclear neutrophils", "experiment": "Superoxide production by neutrophils, SOD-inhibitable ferricytochrome c reduction assay", "procedure": "as §1\nWhen activated by opsonized bacteria, zymozan, fMLP (Formyl-Methionyl-Leucyl-Phenylalanine) or PMA (phorbol myristate acetate), neutrophils undergo an oxidative burst resulting in the production of superoxide anion and subsequent hydrogen peroxide. The oxidative burst is mainly mediated by the NADPH oxidase activation, enzyme responsible of the superoxide anion production. […] This effect results either from the direct anion superoxide scavenging or from the inhibition of NADPH oxidase activation."}, "NIH-3T3 fibroblasts": {"system": "NIH-3T3 fibroblasts", "experiment": "NIH-3T3 fibroblast proliferation, MTT assay", "details": "increasing DHQ concentrations", "procedure": "The NIH 3T3 cell line was purchased from the ATCC (CRL1658). Cell lines are grown in Dulbecco's Modified Eagles' Medium (DMEM) supplemented with 10% heat inactivated newborn calf serum, 100 UI/mL penicillin and 100 μg/mL streptomycin (all from Gibco BRL) at 37° C. in a humidified 5% CO2 atmosphere. DHQ is dissolved in DMSO. Cells are cultured during 48 hours in the absence or in the presence of various DHQ concentrations. NIH-3T3 fibroblasts are immortalized cells which mimic the inflammatory phenotype assessed by the abundance of actin stress fibers and high contractility.\nThe effects of DHQ on the growth of NIH-3T3 cells are determined using the 3-(4,5-dimetthylthiazol-2-yl)-2,5-diphenyltetrazolium bromide (MTT) assay. Briefly, cells are plated on 96 well plates at 4,000 cells per well with increasing DHQ concentrations. After 72 hours of incubation with the drug, medium is removed and replaced by complete medium+MTT (10% v/v). After 3 hours of incubation, formazan crystals are dissolved in buffer containing 10% SDS (w/v, Bio-Rad), 50% Dimethyl formamide (Sigma), pH 4.7. Absorbance of reduced formazan is measured at 580 nm. Results are presented in FIG. 5: 100% of MTT reduced is attributed to the measure performed in absence of DHQ."}, "neutrophils [4]": {"system": "neutrophils", "experiment": "ROS production by neutrophils triggered by fMLP, luminol chemiluminescence", "details": "for Integral (total chemiluminescence counts, total ROS production): 22.21 min", "procedure": "Neutrophils (5×10^5) are suspended in 0.5 mL of Hanks balanced salt solution containing 10 μM luminol at 37° C. The cells are then stimulated with 10^−6M fMLP (N-formylmethionyl-leucyl-phenylalanine). Chemiluminescence is recorded with a luminometer (Berthold-Biolumat LB937). Similarly, neutrophils were triggered by fMLP (10^−6 M) in the presence of different concentrations of DHQ (0, 1, 10 and 100 μM) at 37° C. in Hanks buffer containing 10 μM luminol and chemiluminescence was measured by a chemiluminometer. Total chemiluminescence counts during 22.21 min. (integrals) corresponding to total ROS production were determined."}, "human mast cells": {"system": "human mast cells", "experiment": "Mast cell degranulation (IgE/anti-IgE), beta-hexosaminidase release", "text": "Pure populations of human mast cells (HMC) are obtained by long-term culture of human normal hematopoietic progenitors (CD34^+ cells) in the continuous presence of Stem Cell Factor (SCF). Sources of these CD34^+ cells are mainly bone marrow, cord blood or peripheral blood. Usually, mononuclear cells from bone marrow and cord blood contain 0.5-1% of CD34^+ cells, whereas peripheral blood contains less than 0.1% of CD34^+ cells. Hematopoietic progenitor cells can be rapidly and efficiently enriched to a purity of about 85-98% using positive selection of magnetically labeled CD34^+ cells. Hematopoietic progenitor cells are then magnetically labeled using MACS CD34 MicroBeads. The magnetically labeled cells are enriched on positive selection columns in the magnetic field. Mononuclear cells from peripheral blood (PBMC), cord blood, or bone marrow may otherwise be obtained by density gradient centrifugation over Ficoll Paque®. Fractionation methods for producing mast cells are described in the art (see for instance Arock et al., 2008, Methods in Molecular biology 415: 241-254). Mast cell degranulation was induced by sequential treatment of mast cell by IgE, then by anti-IgE antibodies. Degranulation was subsequently measured by evaluating the release of beta-hexosaminidase, 1 h after IgE stimulation (see FIG. 4)."}, "[5]": {"details": "fMLP 10^−6 M, DHQ 1 μM (inferred)"}, "[6]": {"details": "fMLP 10^−6 M, DHQ 10 μM (inferred)"}, "[7]": {"details": "fMLP 10^−6 M, DHQ 100 μM (inferred)"}},
  "data": [
    {"compound": "O=C1c2c(O)cc(O)cc2OC(c2ccc(O)c(O)c2)C1O", "note": "(stereo not shown) [DHQ]", "values": [
      {"measurement": "inhibition at 1 µM", "setting": "neutrophils [1]; Neutrophil, neutrophils activated by PMA, DHQ 1 μM", "result": "~80", "unit": "%"},
      {"measurement": "Integral (total chemiluminescence counts, total ROS production)", "setting": "neutrophils [1]; DHQ 1 μM (line not labelled, concentration inferred)", "result": "4.509E+08"},
      {"measurement": "Integral (total chemiluminescence counts, total ROS production)", "setting": "neutrophils [1]; DHQ 10 μM (line not labelled, concentration inferred)", "result": "2.0172E+08"},
      {"measurement": "Integral (total chemiluminescence counts, total ROS production)", "setting": "neutrophils [1]; DHQ 100 μM (line not labelled, concentration inferred)", "result": "3.576E+07"},
      {"measurement": "Peak max", "setting": "neutrophils [1]; DHQ 1 μM (inferred)", "result": "2.430E+07", "unit": "cpm"},
      {"measurement": "Slope max", "setting": "neutrophils [1]; DHQ 1 μM (inferred)", "result": "9.790E+06", "unit": "cpm"},
      {"measurement": "T. Slope max", "setting": "neutrophils [1]; DHQ 1 μM (inferred)", "result": 1.78},
      {"measurement": "T. half (rise)", "setting": "neutrophils [1]; DHQ 1 μM (inferred)", "result": 2.44},
      {"measurement": "T. max (peak)", "setting": "neutrophils [1]; DHQ 1 μM (inferred)", "result": 11.77},
      {"measurement": "Peak max", "setting": "neutrophils [1]; DHQ 10 μM (inferred)", "result": "1.134E+07", "unit": "cpm"},
      {"measurement": "Slope max", "setting": "neutrophils [1]; DHQ 10 μM (inferred)", "result": "4.380E+06", "unit": "cpm"},
      {"measurement": "T. Slope max", "setting": "neutrophils [1]; DHQ 10 μM (inferred)", "result": 1.55},
      {"measurement": "T. half (rise)", "setting": "neutrophils [1]; DHQ 10 μM (inferred)", "result": 2.22},
      {"measurement": "T. max (peak)", "setting": "neutrophils [1]; DHQ 10 μM (inferred)", "result": 9.55},
      {"measurement": "Peak max", "setting": "neutrophils [1]; DHQ 100 μM (inferred)", "result": "2.260E+06", "unit": "cpm"},
      {"measurement": "Slope max", "setting": "neutrophils [1]; DHQ 100 μM (inferred)", "result": "1.033E+06", "unit": "cpm"},
      {"measurement": "T. Slope max", "setting": "neutrophils [1]; DHQ 100 μM (inferred)", "result": 4.66},
      {"measurement": "T. half (rise)", "setting": "neutrophils [1]; DHQ 100 μM (inferred)", "result": 4.89},
      {"measurement": "T. max (peak)", "setting": "neutrophils [1]; DHQ 100 μM (inferred)", "result": 11.55},
      {"measurement": "oxygen consumption of polymorphonuclear neutrophils", "setting": "[2]", "result": "strongly inhibits"},
      {"measurement": "cytochrome c reduction (anion superoxide production)", "setting": "[3]; +PMA, DHQ 1 μM", "result": 0.110, "unit": "dDO/min"},
      {"measurement": "cytochrome c reduction (anion superoxide production)", "setting": "[3]; +PMA, DHQ 10 μM", "result": 0.070, "unit": "dDO/min"},
      {"measurement": "cytochrome c reduction (anion superoxide production)", "setting": "[3]; +PMA, DHQ 100 μM", "result": 0.021, "unit": "dDO/min"},
      {"measurement": "cytochrome c reduction (anion superoxide production)", "setting": "[3]; +fMLP, DHQ 1 μM", "result": 0.144, "unit": "dDO/min"},
      {"measurement": "cytochrome c reduction (anion superoxide production)", "setting": "[3]; +fMLP, DHQ 10 μM", "result": 0.105, "unit": "dDO/min"},
      {"measurement": "cytochrome c reduction (anion superoxide production)", "setting": "[3]; +fMLP, DHQ 100 μM", "result": 0.040, "unit": "dDO/min"},
      {"measurement": "cytochrome c reduction (anion superoxide production)", "setting": "[3]; resting neutrophils, DHQ 1 μM", "result": 0.000, "unit": "dDO/min"},
      {"measurement": "cytochrome c reduction (anion superoxide production)", "setting": "[3]; resting neutrophils, DHQ 10 μM", "result": 0.036, "unit": "dDO/min"},
      {"measurement": "cytochrome c reduction (anion superoxide production)", "setting": "[3]; resting neutrophils, DHQ 100 μM", "result": 0.086, "unit": "dDO/min"},
      {"measurement": "cell viability of NIH-3T3 cells (extent of MTT reduced)", "setting": "NIH-3T3 fibroblasts", "result": "reduced"},
      {"measurement": "inhibition at 1 µM", "setting": "neutrophils [4]; Neutrophil, neutrophils activated by fMLP, DHQ 1 μM", "result": "~80", "unit": "%"},
      {"measurement": "Integral (total chemiluminescence counts, total ROS production)", "setting": "neutrophils [4]; fMLP 10^−6 M, DHQ 1 μM (line not labelled, concentration inferred)", "result": "3.838E+08"},
      {"measurement": "Integral (total chemiluminescence counts, total ROS production)", "setting": "neutrophils [4]; fMLP 10^−6 M, DHQ 10 μM (line not labelled, concentration inferred)", "result": "1.867E+08"},
      {"measurement": "Integral (total chemiluminescence counts, total ROS production)", "setting": "neutrophils [4]; fMLP 10^−6 M, DHQ 100 μM (line not labelled, concentration inferred)", "result": "4.329E+07"},
      {"measurement": "Peak max", "setting": "neutrophils [4]; [5]", "result": "3.731E+07", "unit": "cpm"},
      {"measurement": "Slope max", "setting": "neutrophils [4]; [5]", "result": "2.492E+07", "unit": "cpm"},
      {"measurement": "T. Slope max", "setting": "neutrophils [4]; [5]", "result": 0.22},
      {"measurement": "T. half (fall)", "setting": "neutrophils [4]; [5]", "result": 3.78},
      {"measurement": "T. max (peak)", "setting": "neutrophils [4]; [5]", "result": 1.33},
      {"measurement": "Peak max", "setting": "neutrophils [4]; [6]", "result": "1.770E+07", "unit": "cpm"},
      {"measurement": "Slope max", "setting": "neutrophils [4]; [6]", "result": "1.206E+07", "unit": "cpm"},
      {"measurement": "T. Slope max", "setting": "neutrophils [4]; [6]", "result": 0.22},
      {"measurement": "T. half (fall)", "setting": "neutrophils [4]; [6]", "result": 3.55},
      {"measurement": "T. max (peak)", "setting": "neutrophils [4]; [6]", "result": 1.33},
      {"measurement": "Peak max", "setting": "neutrophils [4]; [7]", "result": "2.533E+06", "unit": "cpm"},
      {"measurement": "Slope max", "setting": "neutrophils [4]; [7]", "result": "1.464E+06", "unit": "cpm"},
      {"measurement": "T. Slope max", "setting": "neutrophils [4]; [7]", "result": 2.00},
      {"measurement": "T. half (rise)", "setting": "neutrophils [4]; [7]", "result": 1.55},
      {"measurement": "T. max (peak)", "setting": "neutrophils [4]; [7]", "result": 6.00},
      {"measurement": "inhibition at 10 µM", "setting": "human mast cells; Homo sapiens, Mast cell, DHQ 10 μM, beta-hexosaminidase release 1 h after IgE stimulation", "result": "≤ 50", "unit": "%"},
      {"measurement": "inhibition at 100 µM", "setting": "human mast cells; Homo sapiens, Mast cell, DHQ 100 μM, beta-hexosaminidase release 1 h after IgE stimulation", "result": 80, "unit": "%"},
      {"measurement": "inhibitory activity on degranulation compared with reference molecules", "setting": "human mast cells; versus kinase inhibitors and chromoglycate", "result": "superior to kinase inhibitors and chromoglycate"}
    ]}
  ]
}
